# Laboratory results: patent US10471041B2, “Use of geninstein” (DSM IP ASSETS B.V., priority 2007, dated 2019)
# Tested on: rats treated with scopolamine
# Assay: Zone Quick test (phenol red thread) of tear production in the scopolamine dry eye model
# Type: in vivo, rat
# Conditions: FIG. 1
# Description: Another well-accepted model of dry eye is the scopolamine model which utilizes subcutaneous injections (5 mg in 10 ml) or dermal patch or gel dosage (Durson et al., Invest. Ophthalmol. Vis. Sci. 43: 632-8, 2002) of scopolamine to induce a dry eye condition in rats by parasympatholytic blockade of natural tear production.
# These models and their variations were used to test the efficacy of genistein, delivered as a feed admixture (50 mg/kg low dose and 250 mg/kg high dose) to ameliorate the effects of dry eye. In addition, one test group served as a control group, receiving vehicle feed only with no added isoflavonoids.
# Tear volume was assessed by using absorptive threads impregnated with Phenol Red (zone quick test). Outcome measures are according to criteria published in test instructions as well as comparison with control animal results.
# Tear volume was monitored by the Zone Quick test. This in-life test is a standardized measure of tear production. It consists of a thread impregnated with phenol red which causes a colour change of the length of the thread that becomes wet from tears when the thread is applied to the lacrimal lake. The length (in mm) of the wetted thread is proportional to the tear volume produced.
# 0-CON, 0-SCOP: each 8 control animals (not on scopolamine or on scopolamine)
# 50-SCOP: 8 animals (on scopolamine) suppl. with 50 ppm genistein […]
structure (smiles),measurement,setting,value
"O=c1c(-c2ccc(O)cc2)coc2cc(O)cc(O)c12 [genistein, 4′,5,7-trihydroxy-isoflavone]",dose dependence of tear volume restoration,250 vs 50 genistein supplementation groups,more pronounced in the group supplemented with 250 mg than in that with 50 mg
same,"tear volume (Zone Quick test, length of wetted thread)","genistein as feed admixture, 50 or 250 ppm, supplementation 2.5 weeks (MIDTEST) and 5.0 weeks (FINALTEST), compared with control animals",restored their tear volume almost to control values
